Results as given in PubChem BioAssay (NCI).
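Protocol summary: plate cells (96-well), add compound at 5 concentrations, incubate 48 h, interpolate endpoints linearly. GI50: concentration for 50% inhibition of growth. TGI denotes the concentration required for complete inhibition of growth.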

Key:
Test in all cases: growth of human tumour cells (NCI), 48 h
HCT-15 colon = test system: HCT-15 colon
SK-MEL-28 melanoma = test system: SK-MEL-28 melanoma
NCI-H23 lung = test system: NCI-H23 lung
MOLT-4 leukemia = test system: MOLT-4 leukemia
HCT-116 colon = test system: HCT-116 colon
SF-268 CNS = test system: SF-268 CNS
K-562 leukemia = test system: K-562 leukemia
BT-549 breast = test system: BT-549 breast
SR leukemia = test system: SR leukemia
OVCAR-4 ovarian = test system: OVCAR-4 ovarian

Which GI50 (HCT-15 colon) does the source give for `CO[C@@H]1/C=C(C)/C=C/[C@@H](C)/C=C(\C)C(=O)OC(/C(C)=C/C=C(\C)CNC(=O)[C@H](CO)NC=O)[C@@H](C)/C=C/C=C/[C@H](OC)CC/C=C(C)/C=C/C1` (some centres undefined) here?
Its GI50 is 22.5 nM.

What about the TGI (HCT-15 colon) of the same compound?
The TGI was 6880 nM.

What about the GI50 (SK-MEL-28 melanoma) of the same compound?
Its GI50 is 8.43 nM.

And the TGI (SK-MEL-28 melanoma)?
The TGI was 11400 nM.

And the GI50 (NCI-H23 lung)?
The GI50 was < 5 nM.

What about the TGI (NCI-H23 lung) of the same compound?
Its TGI is 266 nM.

And the GI50 (MOLT-4 leukemia)?
The GI50 was < 5 nM.

And the TGI (MOLT-4 leukemia)?
Its TGI is > 42200 nM.

What about the GI50 (HCT-116 colon) of the same compound?
Its GI50 is < 5 nM.

What about the TGI (HCT-116 colon) of the same compound?
The TGI was 6110 nM.

What about the GI50 (SF-268 CNS) of the same compound?
The GI50 was < 5 nM.

And the TGI (SF-268 CNS)?
Its TGI is 1090 nM.

What about the GI50 (K-562 leukemia) of the same compound?
Its GI50 is < 5 nM.

And the TGI (K-562 leukemia)?
The TGI was 238 nM.

And the GI50 (BT-549 breast)?
Its GI50 is < 5 nM.

What about the TGI (BT-549 breast) of the same compound?
Its TGI is 12100 nM.

And the GI50 (SR leukemia)?
Its GI50 is < 5 nM.

And the TGI (SR leukemia)?
Its TGI is > 11900 nM.

And the GI50 (OVCAR-4 ovarian)?
The GI50 was < 5 nM.

What about the TGI (OVCAR-4 ovarian) of the same compound?
Its TGI is > 50000 nM.

Which results are given for `NC1=NC(c2ccc(Cl)cc2)C2=C(N1)/C(=C/c1ccc(Cl)cc1)CCC2` (centres undefined)?
GI50 (HCT-15 colon): 9130 nM; TGI (HCT-15 colon): 26900 nM; GI50 (SK-MEL-28 melanoma): 17000 nM; TGI (SK-MEL-28 melanoma): 45400 nM; GI50 (NCI-H23 lung): 5980 nM; TGI (NCI-H23 lung): 26700 nM; GI50 (MOLT-4 leukemia): 9470 nM; TGI (MOLT-4 leukemia): 57000 nM; GI50 (HCT-116 colon): 1670 nM; TGI (HCT-116 colon): 3220 nM; GI50 (SF-268 CNS): 7350 nM; TGI (SF-268 CNS): > 38900 nM; GI50 (K-562 leukemia): 6920 nM; TGI (K-562 leukemia): > 87800 nM; GI50 (BT-549 breast): 2740 nM; TGI (BT-549 breast): 10700 nM; GI50 (SR leukemia): 3690 nM; TGI (SR leukemia): 9840 nM; GI50 (OVCAR-4 ovarian): 13900 nM; TGI (OVCAR-4 ovarian): 76500 nM

For `COc1ccc2c(c1)C(=O)/C(=C/c1ncc([N+](=O)[O-])n1C)O2`, which GI50 (HCT-15 colon) is on record?
The GI50 was 221 nM.

And the TGI (HCT-15 colon)?
Its TGI is 629 nM.

What about the GI50 (SK-MEL-28 melanoma) of the same compound?
The GI50 was 317 nM.

What about the TGI (SK-MEL-28 melanoma) of the same compound?
The TGI was 1910 nM.

What about the GI50 (NCI-H23 lung) of the same compound?
Its GI50 is 1020 nM.

And the TGI (NCI-H23 lung)?
The TGI was 4760 nM.

And the GI50 (MOLT-4 leukemia)?
The GI50 was 161 nM.

What about the TGI (MOLT-4 leukemia) of the same compound?
The TGI was 562 nM.

What about the GI50 (HCT-116 colon) of the same compound?
The GI50 was 176 nM.

What about the TGI (HCT-116 colon) of the same compound?
Its TGI is 480 nM.

And the GI50 (SF-268 CNS)?
The GI50 was 421 nM.

And the TGI (SF-268 CNS)?
Its TGI is 2100 nM.

And the GI50 (K-562 leukemia)?
Its GI50 is 245 nM.

And the GI50 (BT-549 breast)?
The GI50 was 618 nM.

And the TGI (BT-549 breast)?
Its TGI is 1990 nM.

What about the GI50 (SR leukemia) of the same compound?
Its GI50 is 23.9 nM.

What about the TGI (SR leukemia) of the same compound?
The TGI was 1350 nM.

And the GI50 (OVCAR-4 ovarian)?
Its GI50 is 2270 nM.

And the TGI (OVCAR-4 ovarian)?
Its TGI is 7120 nM.
